Laboratory results taken from the supplement of paper PMC11451515.

How the values were obtained:
Details in all cases: 48 h
SEM cells [1] = assay: AUC of viability dose-response curve (% viability x log10 dose units); higher = less sensitive
In short: (§1)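 Leukemia cells adapted to each medium were seeded in 1536-well plates (500 or 1000 cells/well). They were dosed with library compounds in DMSO at 11 threefold doses, 47 μM to 0.79 nM, for 48 h at 37°C. CellTiter-Glo One luminescence was normalised per plate to DMSO and cell-free wells. Area under the curve was integrated by trapezoidal rule over log10 doses on a four-parameter log-logistic fit; curves exceeding full viability were scaled and curves failing quality control removed.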

P12-Ichikawa [2] = assay: as above
In short: as §1

NOMO1 [3] = assay: as above
In short: as §1

SEM cells [4] = assay: cell viability relative to DMSO control; higher = less cytotoxic
In short: (§2)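 Viability is expressed as a percentage of DMSO wells within each plate, and cell-free wells serve as background. Seeding densities in the 1536-well plates (5 μl) were 500 cells/well for NOMO1 or SEM leukemia cells and 1000 cells/well for P12-Ichikawa. Each line was adapted for at least four passages in each medium. Library compounds in DMSO were pin-dosed at 47 μM to 0.79 nM (11 points, threefold), and CellTiter-Glo One luminescence was read after 48 h at 37°C.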

P12-Ichikawa [5] = assay: as above
In short: as §2

NOMO1 [6] = assay: as above
In short: as §2

OC(=O)C(CC/1=C/C(=O)NC2=CC=CC=C12)NC(=O)C3=CC=C(Cl)C=C3 (stereo not drawn)
AUC of viability dose-response curve
Details | NOMO1 [3] | P12-Ichikawa [2] | SEM cells [1]
HPLM + 10% dialyzed FBS | 469 | 468 | 447
RPMI 5 mM glucose + 10% FBS | 454 | 436 | 467
RPMI 5 mM glucose + 10% dialyzed FBS | 469 | 465 | 470

cell viability [%]
Details | NOMO1 [6] | P12-Ichikawa [5] | SEM cells [4]
HPLM + 10% dialyzed FBS, 0.000781 µM | 95.6 | 111 | 94.7
HPLM + 10% dialyzed FBS, 0.00234 µM | 117 | 118 | 93.9
HPLM + 10% dialyzed FBS, 0.00702 µM | 136 | 120 | 108
HPLM + 10% dialyzed FBS, 0.0211 µM | 121 | 123 | 106
HPLM + 10% dialyzed FBS, 0.0632 µM | 130 | 123 | 108
HPLM + 10% dialyzed FBS, 0.19 µM | 121 | 125 | 107
HPLM + 10% dialyzed FBS, 0.569 µM | 131 | 124 | 116
HPLM + 10% dialyzed FBS, 1.71 µM | 122 | 128 | 105
HPLM + 10% dialyzed FBS, 5.12 µM | 131 | 122 | 121
HPLM + 10% dialyzed FBS, 15.4 µM | 136 | 126 | 121
HPLM + 10% dialyzed FBS, 46.1 µM | 110 | 125 | 112
RPMI 5 mM glucose + 10% FBS, 0.000781 µM | 121 | 109 | 113
RPMI 5 mM glucose + 10% FBS, 0.00234 µM | 122 | 115 | 109
RPMI 5 mM glucose + 10% FBS, 0.00702 µM | 121 | 119 | 106
RPMI 5 mM glucose + 10% FBS, 0.0211 µM | 134 | 117 | 113
RPMI 5 mM glucose + 10% FBS, 0.0632 µM | 132 | 131 | 133
RPMI 5 mM glucose + 10% FBS, 0.19 µM | 127 | 122 | 112
RPMI 5 mM glucose + 10% FBS, 0.569 µM | 140 | 128 | 116
RPMI 5 mM glucose + 10% FBS, 1.71 µM | 155 | 121 | 112
RPMI 5 mM glucose + 10% FBS, 5.12 µM | 137 | 128 | 121
RPMI 5 mM glucose + 10% FBS, 15.4 µM | 135 | 132 | 126
RPMI 5 mM glucose + 10% FBS, 46.1 µM | 134 | 141 | 104
RPMI 5 mM glucose + 10% dialyzed FBS, 0.000781 µM | 114 | 120 | 120
RPMI 5 mM glucose + 10% dialyzed FBS, 0.00234 µM | 125 | 122 | 105
RPMI 5 mM glucose + 10% dialyzed FBS, 0.00702 µM | 147 | 129 | 126
RPMI 5 mM glucose + 10% dialyzed FBS, 0.0211 µM | 127 | 130 | 130
RPMI 5 mM glucose + 10% dialyzed FBS, 0.0632 µM | 139 | 139 | 118
RPMI 5 mM glucose + 10% dialyzed FBS, 0.19 µM | 137 | 135 | 119
RPMI 5 mM glucose + 10% dialyzed FBS, 0.569 µM | 136 | 135 | 135
RPMI 5 mM glucose + 10% dialyzed FBS, 1.71 µM | 135 | 128 | 117
RPMI 5 mM glucose + 10% dialyzed FBS, 5.12 µM | 134 | 130 | 131
RPMI 5 mM glucose + 10% dialyzed FBS, 15.4 µM | 132 | 124 | 119
RPMI 5 mM glucose + 10% dialyzed FBS, 46.1 µM | 143 | 133 | 120
